Laboratory results reported in patent publication US12570675B2, “Boronic acid compounds” (LG CHEM, LTD., priority 2020, dated 2026).

What follows are compounds tested against Proteasome chymotrypsin-like activity (S26 protein from RPMI8226 cells) (Homo sapiens, UniProt P28074). Details: S26 protein from RPMI8226 cell extract 2 ug/well, substrate 20 uM, 37° C., 90 minutes; read-out: Proteasome chymotrypsin-like activity inhibition IC50.
Type: biochemical
Description: The abilities to inhibit the proteasome activity of the compounds described in the Examples of the present invention and boronic acid drugs were evaluated as follows.
RPMI8226 cells, which is a multiple myeloma cell line, were cultured and then separated by a centrifuge, and washed twice with phosphate buffered saline (PBS). 20 mM of a tris-HCl (pH 8.0) buffer solution was added to the washed cells, and the cells were disrupted by a homogenizer and centrifuged to obtain S26 protein from the supernatant. Suc-Leu-Leu-Val-Tyr-AMC, for a fluorogenic substrate for the chymotrypsin-like activity of the proteasome, and Z-Leu-Leu-Glu-AMC, for a fluorogenic substrate for the caspase-like activity, were purchased from Calbiochem, EMD Millipore and used. Into each well of a 96-well plate (opaque, black round bottom), 20 ul of the S26 protein (final RPMI8226 cell extract concentration: 2 ug/well), 10 ul of S26 proteasome inhibitor serially diluted from 10 uM (final DMSO concentration: 0.5%), and 20 ul of the fluorogenic substrate for the proteasome chymotrypsin-like or caspase-like activity (final concentration: 20 uM) were added and mixed and allowed to react in a 37° C. incubator for 90 minutes. The fluorescence of the fluorogenic substrate was measured by FlexStation II Fluorometer (Molecular Devices). The fluorescence inhibited by the compound diluted at each concentration was measured as the relative percentage value for the amount obtained from the treatment only with the S26 protein and the fluorogenic substrate. IC50 (inhibitory concentration 50) was expressed in terms of a concentration that inhibits 50% of the maximum fluorescence induced by the fluorogenic substrate.

Proteasome chymotrypsin-like activity (S26 protein from RPMI8226 cells), sequence (P28074 60-263 limits assumed): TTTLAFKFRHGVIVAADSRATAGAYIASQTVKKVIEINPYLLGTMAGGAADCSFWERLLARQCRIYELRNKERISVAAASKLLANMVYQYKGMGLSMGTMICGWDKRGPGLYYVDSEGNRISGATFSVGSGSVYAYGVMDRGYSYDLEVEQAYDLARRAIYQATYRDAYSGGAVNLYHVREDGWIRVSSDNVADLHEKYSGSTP

**Q.** For `CC(C)C[C@H](NC(=O)C1CC(c2cccc(OC(F)(F)F)c2)=NO1)B(O)O` (stereo partly drawn) [Example 37, ((1R)-3-methyl-1-(3-(3-(trifluoromethoxy)phenyl)-4,5-dihydroisoxazol-5-carboxamido)butyl)boronic acid], which IC50 is on record?
**A.** < 500 nM

**Q.** For `CC(C)C[C@H](NC(=O)C1CC(c2ccc(OC(F)(F)F)cc2)=NO1)B(O)O` (stereo partly drawn) [Example 38, ((1R)-3-methyl-1-(3-(4-(trifluoromethoxy)phenyl)-4,5-dihydroisoxazol-5-carboxamido)butyl)boronic acid], which IC50 is on record?
**A.** < 500 nM

**Q.** How did the IC50 turn out when `CC(C)C[C@H](NC(=O)C1CC(c2ccccc2OC(F)(F)F)=NO1)B(O)O` (stereo partly drawn) [Example 39, ((1R)-3-methyl-1-(3-(2-(trifluoromethoxy)phenyl)-4,5-dihydroisoxazol-5-carboxamido)butyl)boronic acid] was run?
**A.** < 500 nM

**Q.** For `CC(C)C[C@H](NC(=O)C1CC(c2cccc(Oc3ccccc3)c2)=NO1)B(O)O` (stereo partly drawn) [Example 40, ((1R)-3-methyl-1-(3-(3-phenoxyphenyl)-4,5-dihydroisoxazol-5-carboxamido)butyl)boronic acid], which IC50 is on record?
**A.** < 500 nM

**Q.** Which IC50 does the source give for `CC(C)C[C@H](NC(=O)C1CC(c2cccc(Oc3ccccn3)c2)=NO1)B(O)O` (stereo partly drawn) [Example 41, ((1R)-3-methyl-1-(3-(3-(pyridin-2-yloxy)phenyl)-4,5-dihydroisoxazol-5-carboxamido)butyl)boronic acid] here?
**A.** < 250 nM

**Q.** With `CC(C)C[C@H](NC(=O)C1CC(c2ccc(Oc3ccccn3)cc2)=NO1)B(O)O` (stereo partly drawn) [Example 42, ((1R)-3-methyl-1-(3-(4-(pyridin-2-yloxy)phenyl)-4,5-dihydroisoxazol-5-carboxamido)butyl)boronic acid] as the compound, how does the IC50 read?
**A.** < 250 nM

**Q.** `CC(C)C[C@H](NC(=O)C1CC(c2cccc(OCc3ccccn3)c2)=NO1)B(O)O` (stereo partly drawn) [Example 43, ((1R)-3-methyl-1-(3-(3-(pyridin-2-ylmethoxy)phenyl)-4,5-dihydroisoxazol-5-carboxamido)butyl)boronic acid] was tested. Which IC50 did it give?
**A.** < 250 nM

**Q.** For `CC(C)C[C@H](NC(=O)C1CC(c2ccc(Oc3ccccc3)cc2)=NO1)B(O)O` (stereo partly drawn) [Example 44, ((1R)-3-methyl-1-(3-(4-phenoxyphenyl)-4,5-dihydroisoxazol-5-carboxamido)butyl)boronic acid], which IC50 is on record?
**A.** < 500 nM

**Q.** Which IC50 does the source give for `CC(C)C[C@H](NC(=O)C1(Cc2ccccc2)CC(COCc2cc(Cl)ccc2Cl)=NO1)B(O)O` (stereo partly drawn) [Example 45, ((1R)-1-(5-benzyl-3-(((2,5-dichlorobenzyl)oxy)methyl)-4,5-dihydroisoxazol-5-carboxamido)-3-methylbutyl)boronic acid] here?
**A.** < 10 nM

**Q.** Which IC50 does the source give for `Cc1nc(COCC2=NOC(Cc3ccccc3)(C(=O)N[C@@H](CC(C)C)B(O)O)C2)c(Cl)s1` (stereo partly drawn) [Example 50, ((1R)-1-(5-benzyl-3-(((5-chloro-2-methylthiazol-4-yl)methoxy)methyl)-4,5-dihydroisoxazol-5-carboxamido)-3-methylbutyl)boronic acid] here?
**A.** < 10 nM

**Q.** With `CC(C)C[C@H](NC(=O)C1(Cc2ccccc2)CC(COCc2cccc(Br)c2)=NO1)B(O)O` (stereo partly drawn) [Example 52, ((1R)-1-(5-benzyl-3-(((3-bromobenzyl)oxy)methyl)-4,5-dihydroisoxazol-5-carboxamido)-3-methylbutyl)boronic acid] as the compound, how does the IC50 read?
**A.** < 10 nM

**Q.** `CC(C)C[C@H](NC(=O)C1(Cc2ccccc2)CC(COCc2cccc(Br)n2)=NO1)B(O)O` (stereo partly drawn) [Example 53, ((1R)-1-(5-benzyl-3-(((6-bromopyridin-2-yl)methoxy)methyl)-4,5-dihydroisoxazol-5-carboxamido)-3-methylbutyl)boronic acid] was tested. Which IC50 did it give?
**A.** < 10 nM

**Q.** For `CC(C)C[C@H](NC(=O)C1(Cc2ccccc2)CC(COCc2cccc(-c3ccccc3)c2)=NO1)B(O)O` (stereo partly drawn) [Example 54, ((1R)-1-(3-(([1,1′-biphenyl]-3-ylmethoxy)methyl)-5-benzyl-4,5-dihydroisoxazol-5-carboxamido)-3-methylbutyl)boronic acid], which IC50 is on record?
**A.** < 10 nM

**Q.** With `CC(C)C[C@H](NC(=O)C1(Cc2ccccc2)CC(COCc2cccc(-c3ccccc3)n2)=NO1)B(O)O` (stereo partly drawn) [Example 55, [(1R)-1-[[5-benzyl-3-[(6-phenyl-2-pyridyl)methoxymethyl]-4H-1,2-oxazol-5-carbonyl]amino]-3-methyl-butyl]boronic acid] as the compound, how does the IC50 read?
**A.** < 10 nM

**Q.** `COc1ccc(-c2cccc(COCC3=NOC(Cc4ccccc4)(C(=O)N[C@@H](CC(C)C)B(O)O)C3)c2)cc1` (stereo partly drawn) [Example 56, ((1R)-1-(5-benzyl-3-(((4′-methoxy-[1,1′-biphenyl]-3-yl)methoxy)methyl)-4,5-dihydroisoxazol-5-carboxamido)-3-methylbutyl)boronic acid] was tested. Which IC50 did it give?
**A.** < 10 nM

**Q.** For `COc1cccc(-c2cccc(COCC3=NOC(Cc4ccccc4)(C(=O)N[C@@H](CC(C)C)B(O)O)C3)c2)c1` (stereo partly drawn) [Example 57, ((1R)-1-(5-benzyl-3-(((3′-methoxy-[1,1′-biphenyl]-3-yl)methoxy)methyl)-4,5-dihydroisoxazol-5-carboxamido)-3-methylbutyl)boronic acid], which IC50 is on record?
**A.** < 25 nM

**Q.** For `COc1ccccc1-c1cccc(COCC2=NOC(Cc3ccccc3)(C(=O)N[C@@H](CC(C)C)B(O)O)C2)c1` (stereo partly drawn) [Example 58, [(1R)-1-[[5-benzyl-3-[[3-(2-methoxyphenyl)phenyl]methoxymethyl]-4H-1,2-oxazol-5-carbonyl]amino]-3-methyl-butyl]boronic acid], which IC50 is on record?
**A.** < 25 nM

**Q.** How did the IC50 turn out when `CC(C)C[C@H](NC(=O)C1CC(CNC(=O)c2ccccn2)=NO1)B(O)O` (stereo partly drawn) [Example 60] was run?
**A.** < 250 nM

**Q.** Which IC50 does the source give for `CC(C)C[C@H](NC(=O)C1CC(CNC(=O)c2cccc3ncccc23)=NO1)B(O)O` (stereo partly drawn) [Example 62, ((1R)-3-methyl-1-(3-((quinolin-5-carboxamido)methyl)-4,5-dihydroisoxazol-5-carboxamido)butyl)boronic acid] here?
**A.** < 25 nM

**Q.** How did the IC50 turn out when `CC(C)C[C@H](NC(=O)C1ON=C(CNC(=O)c2nccc3ccccc23)C1C)B(O)O` (stereo partly drawn) [Example 65, ((1R)-1-(3-((isoquinolin-1-carboxamido)methyl)-4-methyl-4,5-dihydroisoxazol-5-carboxamido)-3-methylbutyl)boronic acid] was run?
**A.** < 250 nM

**Q.** How did the IC50 turn out when `CC(C)C[C@H](NC(=O)C1CC([C@@H](NC(=O)c2cccc3c2CCCC3)C(C)C)=NO1)B(O)O` (stereo partly drawn) [Example 66, ((1R)-3-methyl-1-(3-((S)-2-methyl-1-(5,6,7,8-tetrahydronaphthalen-1-carboxamido)propyl)-4,5-dihydroisoxazol-5-carboxamido)butyl)boronic acid] was run?
**A.** < 25 nM

**Q.** With `CC(C)C[C@H](NC(=O)C1CC([C@@H](NC(=O)c2nccc3ccccc23)C(C)C)=NO1)B(O)O` (stereo partly drawn) [Example 67, ((1R)-1-(3-((S)-1-(isoquinolin-1-carboxamido)-2-methylpropyl)-4,5-dihydroisoxazol-5-carboxamido)-3-methylbutyl)boronic acid] as the compound, how does the IC50 read?
**A.** < 25 nM

**Q.** With `CC(C)C[C@H](NC(=O)C1CC(CNC(=O)c2ccc3ccccc3c2)=NO1)B(O)O` (stereo partly drawn) [Example 69, [(1R)-3-methyl-1-[[3-[(naphthalen-2-carbonylamino)methyl]-4,5-dihydro-1,2-oxazol-5-carbonyl]amino]butyl]boronic acid] as the compound, how does the IC50 read?
**A.** < 25 nM

**Q.** Which IC50 does the source give for `CC(C)C[C@H](NC(=O)C1CC(CNC(=O)c2ccc(C(C)(C)C)cc2)=NO1)B(O)O` (stereo partly drawn) [Example 70, ((1R)-1-(3-((4-(tert-butyl)benzamido)methyl)-4,5-dihydroisoxazol-5-carboxamido)-3-methylbutyl)boronic acid] here?
**A.** < 100 nM

**Q.** Which IC50 does the source give for `CC(C)C[C@H](NC(=O)C1CC(C(=O)NCc2cc(Cl)ccc2Cl)=NO1)B(O)O` (stereo partly drawn) [Example 75, ((1R)-1-(3-((2,5-dichlorobenzyl)carbamoyl)-4,5-dihydroisoxazol-5-carboxamido)-3-methylbutyl)boronic acid] here?
**A.** < 100 nM

**Q.** Which IC50 does the source give for `CC(C)C[C@H](NC(=O)C1CC(C(=O)Nc2cccc3ccccc23)=NO1)B(O)O` (stereo partly drawn) [Example 76, ((1R)-3-methyl-1-(3-(naphthalen-1-ylcarbamoyl)-4,5-dihydroisoxazol-5-carboxamido)butyl)boronic acid] here?
**A.** < 50 nM

**Q.** How did the IC50 turn out when `CC(C)C[C@H](NC(=O)C1CC(C(=O)Nc2cccc(Cl)c2)=NO1)B(O)O` (stereo partly drawn) [Example 77, ((1R)-1-(3-((3-chlorophenyl)carbamoyl)-4,5-dihydroisoxazol-5-carboxamido)-3-methylbutyl)boronic acid] was run?
**A.** < 250 nM

**Q.** How did the IC50 turn out when `CC(C)C[C@H](NC(=O)C1CC(CNC(=O)Cc2ccccc2)=NO1)B(O)O` (stereo partly drawn) [Example 79, ((1R)-3-methyl-1-(3-((2-phenylacetamido)methyl)-4,5-dihydroisoxazol-5-carboxamido)butyl)boronic acid] was run?
**A.** < 100 nM

**Q.** How did the IC50 turn out when `Cc1cc(C(=O)NCC2=NOC(C(=O)N[C@@H](CC(C)C)B(O)O)C2)no1` (stereo partly drawn) [Example 81, ((1R)-3-methyl-1-(3-((5-methylisoxazol-3-carboxamido)methyl)-4,5-dihydroisoxazol-5-carboxamido)butyl)boronic acid] was run?
**A.** < 250 nM

**Q.** Which IC50 does the source give for `CC(C)C[C@H](NC(=O)C1CC(CNC(=O)c2cnccn2)=NO1)B(O)O` (stereo partly drawn) [Example 83, ((1R)-3-methyl-1-(3-((pyrazin-2-carboxamido)methyl)-4,5-dihydroisoxazol-5-carboxamido)butyl)boronic acid] here?
**A.** < 250 nM
